Measurements taken from PMC7714071, “Interaction of amyloid beta with humanin and acetylcholinesterase is modulated by ATP” (FEBS Open Bio, 2020).

Assays:
[1] = tested on: Aβ in H1299 cell-conditioned media; assay: ELISA, oligomer versus total Aβ in H1299 cell-conditioned media; format: cell-based, human; conditions: Fig. 8B
Method: (§1) Aβ ELISAs were carried out according to previous protocols for determining the oligomeric and monomeric concentrations of Aβ and as we recently reported. Briefly, total Aβ (monomers + oligomers) was measured by two‐site binding ELISAs using the capture 6E10 monoclonal antibody and 4G8‐conjugated biotin as the detection antibody, which recognizes a distinct epitope, then quantitated using streptavidin‐HRP.
(§2) Using the same samples, oligomerized Aβ was measured by a single‐site ELISA in which antibodies targeting the same primary sequence epitope were used for both capture (4G8) and detection (4G8‐biotin). Only oligomers are detected with this approach since the 4G8‐biotin antibody cannot bind to the captured monomer because the epitope is blocked by the 4G8 capture antibody. Therefore, only oligomeric or multimeric Aβ containing additional exposed 4G8 epitopes, not engaged by the capture antibody, are reported by the streptavidin–HRP. The amount of the monomer was then estimated as the difference between the concentration of total Aβ and the concentration of the oligomer.
(§3) Conditioned media were immunodepleted (ID) according to the methods previously described and our recently published report. Briefly, specific antibodies were bound to ELISA wells overnight (1 : 1000 dilution). The wells were then blocked and washed, then 300 μL of the conditioned medium (0.5 μg·μL^−1) treated as indicated, 72 h postserum starvation, was incubated with the antibodies bound to ELISA wells for 24 h. The ID media were then carefully removed and analyzed for the presence of the target protein or peptide by ELISA. The same amount of protein (3 µL of 600 µg·mL^−1 total protein) of each sample was analyzed in the experiments. Significant depletion (95–100%) was observed upon using each of the antibodies employed in this study.
(§4) Both epitopes recognized by the 6E10 and 4G8 antibodies have been previously shown to be exposed in Aβ aggregates. […] To determine the effect of ID of AChE or HN on this ratio in the absence or presence of added ATP, 0.2 × 10^5 cells per well were seeded in 96‐well plates in 10% FBS‐supplemented media. The next day, the cells were incubated in serum‐free medium for 72 h, then ID of AChE or HN as described in Materials and methods. The antibodies 6E10 or 4G8 were bound (1 : 1000 dilution) to ELISA wells (Fig. 8). The wells were blocked, and then incubated with 300 μL of the ID medium (0.5 μg·μL^−1). Biotin‐4G8 was then added and the signal processed as described in Materials and methods section. Fold change relative to controls using anti‐6E10 or anti‐4G8 antibodies incubated with 300 μL of the medium not incubated with cells was calculated.
(§5) Cells (0.2 × 10^5) were grown in 10% FBS‐supplemented media for 24 h. The cells were then incubated in serum‐free medium for 72 h without or with ATP and the media collected and ID from either HN or AChE as described in Materials and methods section. The antibodies 6E10 or 4G8 were bound (1 : 1000 dilution) to ELISA wells. The wells were blocked, and then incubated with 300 μL of the control and ID medium (0.5 μg·μL^−1). Biotin‐4G8 was then added and the signal processed as described in Materials and methods section. Fold change relative to controls using anti‐6E10 and anti‐4G8 antibodies and 300 μL of the medium not incubated with cells was calculated. Data were processed using the […] 8.4.3 software. The graphs summarize the results expressed as means ± SD of three separate experiments, each performed in triplicate. […]

[2] = tested on: Aβ in A549 cell-conditioned media; assay: ELISA, oligomer versus total Aβ in A549 cell-conditioned media; format: cell-based, human; conditions: Fig. 8A
Method: as §1, §2, §3, §4, §5

[3] = non-depleted, HN-ID or AChE-ID media

Compound	effect of ATP on relative amount of oligomer versus total Aβ ([1]; HN-immunodepleted H1299 media, three experiments in triplicate)	effect of ATP on relative amount of oligomer versus total Aβ [1, 3]	effect of ATP on relative amount of oligomer versus total Aβ ([2]; HN-immunodepleted A549 media, three experiments in triplicate)	effect of ATP on relative amount of oligomer versus total Aβ [2, 3]	oligomer, % of total Aβ remaining after HN ID ([1]; HN-immunodepleted H1299 media (non-depleted ~ 48%))	total Aβ remaining after HN ID ([1]; HN-immunodepleted H1299 media)	oligomer, % of total Aβ remaining after HN ID ([2]; HN-immunodepleted A549 media (non-depleted ~ 63%))	total Aβ remaining after HN ID ([2]; HN-immunodepleted A549 media)
Nc1ncnc2c1ncn2[C@@H]1O[C@H](COP(=O)(O)OP(=O)(O)OP(=O)(O)O)[C@@H](O)[C@H]1O [ATP, Adenosine triphosphate]	does not affect	lack of effect	does not affect	lack of effect	–	–	–	–
Humanin [HN]	–	–	–	–	~ 69%	~ 58%	~ 86%	~ 63%
